In US20120071469A1 (priority 2009, published 2012):
pIC50: −log10 of the molar value. Where a name gives a salt, the structure may show the parent alone.

Molecular target: α7-subtype of nicotinic receptors (Rattus norvegicus, UniProt Q05941)
Assay: biochemical
Format: binding

Sequence of α7-subtype of nicotinic receptors (Q05941 23-502): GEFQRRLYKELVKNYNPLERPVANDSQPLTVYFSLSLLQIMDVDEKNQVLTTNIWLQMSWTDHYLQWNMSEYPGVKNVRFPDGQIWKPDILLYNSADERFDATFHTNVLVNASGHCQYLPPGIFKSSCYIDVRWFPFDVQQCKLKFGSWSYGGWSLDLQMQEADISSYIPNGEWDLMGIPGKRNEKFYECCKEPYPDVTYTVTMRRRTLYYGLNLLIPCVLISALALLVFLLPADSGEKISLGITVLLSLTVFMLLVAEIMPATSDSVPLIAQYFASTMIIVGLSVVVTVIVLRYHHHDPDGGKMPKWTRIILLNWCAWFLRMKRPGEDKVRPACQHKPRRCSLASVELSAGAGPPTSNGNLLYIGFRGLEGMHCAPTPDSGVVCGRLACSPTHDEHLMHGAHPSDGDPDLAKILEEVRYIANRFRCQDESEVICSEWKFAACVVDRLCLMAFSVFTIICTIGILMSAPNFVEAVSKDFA

SMILES: c1cc2c(cc1-c1nnc(N3CCN4CCC3C4)o1)OCO2 (stereo not shown) [Compound I, 4-(5-Benzo[1,3]dioxol-5-yl-[1,3,4]oxadiazol-2-yl)-1,4-diaza-bicyclo[3.2.1]octane fumaric acid salt]
- pIC50: > 7.00
